Measurements published in US12611392B2, “Mitochondria-targeting antioxidants” (GIVAUDAN SA, priority 2019, dated 2026).
Where two headings read alike, the source gives them in different places.

Key:
[1] = cited from earlier work
[2] = Partition between octan-1-ol and aqueous solution at pH 7.0 (log P / log D); settings: for partition in octan-1-ol: octan-1-ol / water pH 7.0; for share in the aqueous phase: octan-1-ol / water
Procedure: In a 10-mL glass tube, two milligrams of sinapine, sinapic acid or MitoTEMPO were added by 4 mL of a 75 mM KH2PO4 buffer solution (aqueous phase), and 4 mL of octan-1-ol. The mixture was then vortexed for 1 hour at room temperature and left to equilibrate for 30 min for sinapic acid and sinapine, and overnight for MitoTEMPO. Both phases were collected with a Pasteur pipette and extemporaneously analyzed by LC-MS using the procedure described below in section 2.7.
The partition coefficient of sinapine, sinapic acid and MitoTEMPO (a commercially-available mitonchondria-targeting superoxide dismutase (SOD) mimetic) between two immiscible liquid phases (octan-1-ol and an aqueous solution at pH 7.0) was measured.

[3] = test system: ROS production in cardiac tissue; assay: ROS production by dihydroethidium (DHE) staining of cardiac tissue after ischemia-reperfusion; design: species or system rat; settings: 10 min after IR; for reduction of DHE fluorescence compared to control hearts: MitoT 0.1 μM, sinapine 60 μM
Procedure: LV samples were embedded in Optimal Cutting Temperature (OCT from Tissue-Tek) and flash-frozen in liquid nitrogen. Frozen sections were covered with 10 μM DHE and incubated in alight-protected humidified chamber at 37° C. for 5 min. Images were obtained with a fluorescence microscope (Olympus BX60, Excitation: 488 nm; emission: 610 nm) at the Imaging facility 3A INRA/University of Avignon. SOD-mimetic TEMPOL (10 mM, Santa Cruz Biotechnology) was used as a negative control to confirm that the signals resulted from ROS production.

[4] = Oxygen radical absorbance capacity (ORAC) assay; settings: aqueous solution; n=4
From the text: (§1) The result of this operation gave the net area under the curve (AUC) which was then plotted on a graph as a function of the concentration.

[5] = test system: isolated adult cardiomyocytes; settings: male, Wistar, rat, 2 μM
Procedure: (§2) Ventricular cardiomyocytes were isolated from 200-250 g male adult Wistar rats as previously described (Cazorla et al. Transmural stretch-dependent regulation of contractile properties in rat heart and its alteration after myocardial infarction. FASEB J. 2005, 19, 88-90). The rats were anesthetized by i.p. injection of pentobarbital sodium (100 mg/kg) with heparin (100 U). The heart was rapidly excised, rinsed in ice-cold Hanks-HEPES buffer (in mM: NaCl 117, KCl 5.7. NaHCO3 4.4, KH2PO4 1.5. MgCl2 1.7, HEPES 21, glucose 11.7, taurine 20. pH at 7.15) mounted on a Langendort perfusion system and perfused (3 mi/min, at 37° C.) first with a Hanks-HEPES buffer for 5 min to be cleared from blood, then with a buffer supplemented with 1.2 mg/mL collagenase type 4 (Worthington, Lakewood, N.J., USA) for 13-18 min. Small pieces of left ventricle were dissected and mechanically dissociated. […] Experiments were performed in Tyrode solution with 1.8 mM Ca^2+.

cardiomyocytes = assay: Cytosol/mitochondria partitioning in cardiomyocytes by LC-MS/MS
Procedure: as §2
Antioxidants were also quantified in cardiomyocytes using LC-MS/MS. Cardiomyocytes (100,000 cells/mL) were incubated in Tyrode for 1 or 2 h with different concentrations of sinapine (2, 20, and 60 μM) or sinapic acid (Sigma Aldrich, 2, 20, and 60 μM). Extracellular, cytosolic and mitochondrial fractions were obtained and frozen in liquid nitrogen until HPLC measurement. After incubation, cells were sedimented and the supernatant collected for the extracellular fraction. The pellet of cells was rinsed twice in Tyrode. Cells were incubated with PBS containing digitonine (5 mg/mL) for 10 min on ice. Cells were centrifugated at 10,000 g for 20 min at 4° C., and the supernatant consisting in the cytosolic fraction was collected. The mitochondrial fraction was collected after rinsing five times the pellets in PBS to avoid contamination of the cytosolic fraction.
These different fractions were then analyzed using an Agilent Poroshell EC-C18 120, 2.7 microns, 2.1×150 mm analytical column on an Agilent 1290 Infinity II series pump. Injection volume was 1 μL. HPLC flow rate was 0.3 mL/min with the following mobile phases: water with 0.1% formic acid (A) and acetonitrile with 0.1% formic acid (B). The gradient was as follows: 0.0-3.0 min 0-30% B, 3.0-7.0 min 30-60% B, then a stabilization step of 4 min at the initial condition. Autosampler tray temperature was set to 10° C. and column temperature was set to 25° C. Detection was performed with an Agilent 6420 triple quadrupole in positive ionization mode with ESI source, gas temperature 325° C., gas flow 9 L/min, nebulizer 35 psi, and capillary voltage 3500 V. Mass spectrometer was working in MRM mode acquisition following the specific transition for Isoproturon-d3 (internal standard 210.2→75.0), Sinapine 310.2→251.1 (qualifier 175.0 and 91.0) and Sinapic acid 225.1→207.0 (qualifier 91.0 and 65.0).
To further evaluate if a positively charged moiety (such as choline) can endowed an antioxidant devoid of any lipid affinity with the ability to accumulate in mitochondria, we incubated sinapine and sinapic acid (lacking the choline group, i.e. negative control) in intact cardiomyocytes at three concentrations (2, 20, and 60 μM) for 1 or 2 h. Then, the mitochondrial fraction was separated from the cytosolic one using differential centrifugation. The levels of sinapine and sinapic acid were measured in each subcellular fraction using LC-MS/MS.

[6] = Plasmatic and tissular levels after oral administration of sinapine; format: in vivo, rat; settings: oral sinapine 200 mg/kg; for level in cytosolic and mitochondrial fractions of the heart: 120 min post-gavage; for plasmatic level: 10, 30, 60, 120 min
Procedure: To evaluate plasmatic and tissular bioavailability of sinapine, rats received 200 mg/kg of sinapine by oral gavage. […] Sinapine and sinapic acid were then quantified in plasma using the following procedure: plasma (50 μL) is mixed with internal standard solution (50 μL in methanol at 10 ng/mL) and mix on a vortex for 1 minute. The solution is then centrifuge for 3 minutes at 12000 rpm, and the supernatant injected into HPLC/MS for quantification. At the end of the procedure the animals were sacrificed and hearts quickly removed. The right ventricle cleaned and LV samples frozen in liquid nitrogen. LV tissue was homogenized in 2 mL of mitochondria isolation buffer (pH 7.2; in mM: 300 saccharose, 5 TES. 0.2 EGTA), using a Polytron (Ultra Turrax T25, IKA Labortechnik). The homogenate was centrifugated at 1,000 g for 10 min at 4° C. To separate cytosolic fraction from the mitochondrial one, the supernatant was centrifugated at 12,000 g for 15 min to 4° C., then collected (cytosolic fraction), while the pellet was collected for mitochondria fraction. To optimize the release of mitochondria materials, the pellet was homogenized in 2% Triton-X lysis buffer during 10 min on ice. To remove Triton-X, mitochondrial fraction was washed, then centrifuged (12,000 g for 15 min at 4° C.) and the pellet was resuspended in mitochondria isolation buffer. Cytosolic and mitochondria fraction obtained were quickly frozen in liquid nitrogen until HPLC measurement. To do so, mitochondria was extracted with the same procedure as for plasma procedure. Cytosol (50 μL) was pipetted into 10 mL volumetric flask, spiked successively with internal standard solution (200 μL at 250 ng/mL in methanol) and 5 mL of methanol-water (50/50 v:v). The flask was ultrasonicated for 5 min, and once cooled down, completed to 10 mL with methanol-water (50/50 v:v). Both the mitochondrial and the cytosolic fractions were analyzed with the LC-MS/MS procedure described above.
After 120 min post-gavage, the heart was removed, rinsed and quickly frozen in liquid nitrogen.

[7] = test system: ROS production in isolated adult rat cardiomyocytes; assay: H2O2 and antimycin A-induced oxidative stress in cardiomyocytes (H2DCF-DA and DHR123 probes); format: cell-based; settings: for effect on H2O2-induced increase in H2DCF-DA fluorescence (cytosolic ROS): 0.1 mM H2O2, 1 h pre-incubation; for effect on H2O2-induced increase in H2DCF-DA fluorescence (cytosolic ROS) / effect of pre-incubation on basal H2DCF-DA and DHR123 fluorescence: sinapic acid 60 μM; for effect of pre-incubation on basal H2DCF-DA and DHR123 fluorescence: control (basal) cells, no stress, sinapine 6 or 60 μM, 1 h
Procedure: Cardiomyocytes (30,000 cell/mL) were incubated with sinapine or sinapic acid for 1 h. Thirty minutes before the end, a fluorogenic probe was added. We used dihydrorhodamine 123 (DHR123) to probe mitochondrial H2O2 and peroxynitrites (Invitrogen Molecular probes Fischer scientific, D23806, Ex/Em: 508/529 nm, concentration=5 μM) and 2′,7′-dichlorodihydrofluorescein diacetate (H2DCF-DA) to probe cytosolic H2O2(Invitrogen Molecular probes Fischer scientific, D399 Ex/Em: 492/517 nm, concentration=5 μM). Cells were rinsed with a Tyrode solution and distributed in microplates for the various conditions. Some cells were stimulated with 0.1 mM H2O2(Sigma Aldrich) or with a 10 μM complex III blocker, antimycin A (AA, Sigma Aldrich) to force the cell to produce mitochondrial ROS. The microplate was immediately transferred to the microplate reader Tecan Infinite M200Pro. Fluorescence was measured at the different wavelengths every 5 min for 30 min.
Two different ROS sensitive fluorogenic probes were used, H2DCF-DA and DHR123, which are specific of cytosolic and mitochondrial ROS production, respectively (Wei et al. Nitric oxide induces oxidative stress and apoptosis in neuronal cells. Biochim. Biophys. Acta-Mol. Cell Res. 2000, 1498, 72-79; Rego et al. Influence of the antioxidants vitamin E and idebenone on retinal cell injury mediated by chemical ischemia, hypoglycemia, or oxidative stress. Free Rad Biol. Med. 1999, 26, 1405-1417; Mark et al. Basic FGF attenuates amyloid β-peptide-induced oxidative stress, mitochondrial dysfunction, and impairment of Na+/K+-ATPase activity in hippocampal neurons. Brain Res. 1997, 756, 205-214).
Myocytes loaded with one of the probes were distributed in microplate wells. ROS production was determined by following the increase of fluorescence for […]. Fluorescence was measured every 5 min and was normalized by the baseline fluorescence (T0). Some cells were incubated with either sinapine (6 or 60 μM) or sinapic acid (60 μM) for 1 h prior measurement. After the incubations, cells were washed out. Some cells were stimulated with 0.1 mM H2O2 or with a mitochondrial electron transport chain complex III blocker, 10 μM antimycin A (AA) to force mitochondria to produce mitochondrial ROS (Quinlan et al. The mechanism of superoxide production by the antimycin-inhibited mitochondrial Q-cycle. J. Biol. Chem. 2011, 286, 31361-31372).

[8] = Conjugated autoxidizable triene (CAT) assay; settings: oil-in-water microemulsion; n=3
From the text: as §1

[9] = 2, 20 and 60 μM, 1 or 2 h incubation

Row | Compound | log D/log P (pH 7.0) [1] | partition in octan-1-ol [2] [%] | reduction of DHE fluorescence compared to control hearts [3] [%] | ORAC value [4] | share in the aqueous phase [2] [%] | level in cytosolic and mitochondrial fractions of the heart [6] | plasmatic level [6] | effect on H2O2-induced increase in H2DCF-DA fluorescence (cytosolic ROS) ([7]; sinapine 6 and 60 μM) | effect of pre-incubation on basal H2DCF-DA and DHR123 fluorescence [7] | further results
1 | COC1=C(OC)C(=O)C(CCCCC[P+](c2ccccc2)(c2ccccc2)c2ccccc2)=C(C)C1=O [MitoQ5] | 1.1 | – | – | – | – | – | – | – | – | –
2 | CC1(C)CC(NC(=O)C[P+](c2ccccc2)(c2ccccc2)c2ccccc2)CC(C)(C)N1[O] [MitoTEMPO] | – | 50 | 24 | – | – | – | – | – | – | log D (pH 7.0) ([2]; octan-1-ol / aqueous buffer, experimental): 0.0; partitioning in both phases ([2]; octan-1-ol / aqueous phase, pH 7.0): 50/50
3 | COC1=C(OC)C(=O)C(CCCCCCCCCC[P+](c2ccccc2)(c2ccccc2)c2ccccc2)=C(C)C1=O.CS(=O)(=O)[O-] [MitoQ10] | 3.4 | – | – | – | – | – | – | – | – | –
4 | COc1cc(/C=C/C(=O)OCC[N+](C)(C)C)cc(OC)c1O [sinapine] | – | < 0.2 | 45 | 2.28±0.25 mol of Trolox equivalent per mol of compound | > 99 | detected and quantified in both the cytosol and mitochondria | detected at all time points at a relatively stable level | prevented the increase in H2DCF-DA | no impact on the fluorescence level | logD ([2]; pH 7): -3; logP ([2]; pH 7): -3; time after which fluorescence increased [5]: 10 to 15 min; level of the incubated compound in cytosol (cardiomyocytes; [9]): detected sinapine in a dose dependent manner; level of the incubated compound in mitochondria (cardiomyocytes; [9]): detected in a dose-dependent manner in mitochondria; share of sinapine entering the mitochondria that is hydrolyzed to sinapic acid (cardiomyocytes; after 1 or 2 h): approximately 25%; time of entry into cardiac cells (cardiomyocytes; no time-dependency between 1 and 2 h): within an hour; hydrolysis of sinapine in cytosol (sinapic acid not detected) (cardiomyocytes; sinapine incubation 1 or 2 h): no major sinapine hydrolysis; effect on antimycin A-induced increase in DHR123 fluorescence (mitochondrial ROS) ([7]; 10 μM antimycin A, 1 h pre-treatment): prevented by sinapine; dose dependence of the effect on H2O2-induced H2DCF-DA increase ([7]; sinapine 6 and 60 μM): dose-dependent
5 | COc1cc(/C=C/C(=O)O)cc(OC)c1O [sinapic acid] | – | – | – | 2.73±0.176 mol of Trolox equivalent per mol of compound | > 85 | not found in any of the fractions | detected at all time points at a relatively stable level | prevented the increase in H2DCF-DA | no impact on the fluorescence level | CAT value [8]: 1.74±0.07 mol of Trolox equivalent per mol of compound; log P ([2]; octan-1-ol / aqueous solution at pH 7.0): −0.9; time of entry into cardiac cells (cardiomyocytes): within an hour; plasma amount of sinapic acid relative to sinapine ([6]; 2 h period): about five times more sinapic acid than sinapine; ROS production (DHE) versus Ctrl ([3]; sinapic acid 60 μM, not significant (p=0.12)): −20%
6 | COC1=C(OC)C(=O)C(CCC[P+](c2ccccc2)(c2ccccc2)c2ccccc2)=C(C)C1=O [MitoQ3] | 0.5 | – | – | – | – | – | – | – | – | –
